Test results published in ChEMBL document CHEMBL1158193, “Ability of different flavonoids to inhibit the procoagulant activity of adherent human monocytes” (J Nat Prod, 1996).

Tested on: Monocyte
Assay: Inhibition of procoagulant activity in monocyte from human blood assessed as counteraction of IL1-induced tissue factor expression at 10 uM after 18 hrs measured as microunits of tissue factor/10^5 cells
Type: functional

Point of comparison: `COc1ccc(-c2cc(=O)c3c(O)cc(O)c(-c4cc(-c5cc(=O)c6c(O)cc(OC)cc6o5)ccc4OC)c3o2)cc1` [SCIADOPITISIN], Activity 0. Against it:
- C[C@@H]1O[C@@H](OC[C@H]2O[C@@H](Oc3cc(O)c4c(c3)O[C@H](c3ccc(O)cc3)CC4=O)[C@H](O)[C@@H](O)[C@@H]2O)[C@H](O)[C@H](O)[C@H]1O [NARIRUTIN] — the same, 0
- O=c1cc(-c2ccccc2)oc2ccccc12 [FLAVONE] — higher, 6.8
- O=C1C[C@@H](c2ccc(O)cc2)Oc2cc(O)cc(O)c21 [NARINGENIN] — the same, 0
- O=C1c2ccc(O)cc2O[C@@H](c2cc(O)c(O)c(O)c2)[C@@H]1O [DIHYDROROBINETIN] — the same, 0
- COc1ccc(-c2cc(=O)c3c(O)c(OC)c(OC)cc3o2)cc1O [EUPATORIN] — the same, 0
- O=c1c(O)c(-c2cc(O)c(O)c(O)c2)oc2cc(O)cc(O)c12 [MYRICETIN] — higher, 1.2
- COc1cc(C2Oc3cc([C@H]4Oc5cc(O)cc(O)c5C(=O)[C@@H]4O)ccc3OC2CO)ccc1O (stereo partly specified) [SILIBININ] — the same, 0
- COc1ccc(-c2cc(=O)c3c(OC)c(OC)c(OC)cc3o2)cc1O — the same, 0
- O=c1c(-c2ccc3c(c2)OCO3)coc2cc(O)ccc12 [PSEUDOBAPTOGENIN] — the same, 0
- O=c1c(O[C@@H]2O[C@H](CO)[C@@H](O)[C@H](O)[C@H]2O)c(-c2ccc(O)cc2)oc2cc(O)cc(O)c12 [ASTRAGALIN] — the same, 0
- COc1cc(O)c2c(=O)c(O)c(-c3ccc(O)c(O)c3)oc2c1 [RHAMNETIN] — the same, 0
- O=c1c(O)c(-c2ccc(O)c(O)c2)oc2cc(O)c(O)c(O)c12 [QUERCETAGETIN] — the same, 0
- O=c1c(O)c(-c2ccc(O)cc2O)oc2cc(O)cc(O)c12 [MORIN] — the same, 0
- O=c1c(O[C@@H]2O[C@@H](CO)[C@H](O)[C@H]2O)c(-c2ccc(O)c(O)c2)oc2cc(O)cc(O)c12 [AVICULARIN] — the same, 0
- O=c1c(O)c(-c2ccc(O)c(O)c2)oc2cc(O)cc(O)c12 [QUERCETIN] — the same, 0
- COc1c(-c2ccccc2)oc2c(ccc3occc32)c1=O [KARANJIN] — the same, 0
- O=c1c(O)c(-c2ccccc2O)oc2cc(O)cc(O)c12 [DATISCETIN] — higher, 28.4
- O=c1cc(-c2ccccc2)oc2cc(O)c(O)c(O)c12 [BAICALEIN] — higher, 55.2
- O=c1c(-c2ccc(O)cc2)coc2cc(O[C@@H]3O[C@H](CO)[C@@H](O)[C@H](O)[C@H]3O)ccc12 [DAIDZIN] — the same, 0
- COc1cc(-c2cc(=O)c3c(O)c(OC)c(OC)cc3o2)cc(OC)c1OC [GRADENIN A] — the same, 0
- COc1cc(-c2cc(=O)c3c(O)cc(O)cc3o2)cc(OC)c1OC — the same, 0
- COc1ccc(-c2cc(=O)c3c(OC)c(OC)c(OC)c(OC)c3o2)cc1 [TANGERETIN] — the same, 0
- O=C1c2ccc(O)cc2O[C@H](c2ccc(O)c(O)c2)[C@H]1O [FUSTIN] — the same, 0
- CCCC(=O)Oc1c(OC)cc(O)c2c(=O)c(O)c(-c3ccccc3)oc12 — the same, 0
- C[C@H]1O[C@@H](Oc2c(-c3cc(O)c(O)c(O)c3)oc3cc(O)cc(O)c3c2=O)[C@@H](O)[C@@H](O)[C@@H]1O [MYRICITRIN] — higher, 37.7
- COc1ccc(-c2cc(=O)c3c(O)cc(O)cc3o2)cc1 [ACACETIN] — higher, 26
- O=c1c(O)c(-c2cc(O)c(O)c(O)c2)oc2cc(O)ccc12 [ROBINETIN] — higher, 38.5
- O=c1c(O)c(-c2ccccc2)oc2cc(O)cc(O)c12 [GALANGIN] — the same, 0
- COc1ccc([C@@H]2CC(=O)c3c(O)cc(O[C@@H]4O[C@H](CO)[C@@H](O)[C@H](O)[C@H]4O[C@@H]4O[C@@H](C)[C@H](O)[C@@H](O)[C@H]4O)cc3O2)cc1O [NEOHESPERIDIN] — the same, 0
- COc1cc(O)c2c(=O)cc(-c3ccccc3)oc2c1 [TECHTOCHRYSIN] — higher, 39
- C[C@@H]1O[C@@H](OC[C@H]2O[C@@H](Oc3c(-c4ccc(O)c(O)c4)oc4cc(O)cc(O)c4c3=O)[C@H](O)[C@@H](O)[C@@H]2O)[C@H](O)[C@H](O)[C@H]1O [RUTIN] — higher, 9.1
- CC(=O)OC[C@H]1O[C@@H](Oc2c(-c3ccc(O)c(O)c3)oc3cc(O)cc(O)c3c2=O)[C@H](O)[C@@H](O)[C@@H]1O — higher, 12.4
- O=c1cc(-c2ccc(O)c(O)c2)oc2cc(O)cc(O)c12 [LUTEOLIN] — higher, 10.6
- COc1cc([C@@H]2CC(=O)c3c(O)cc(O)cc3O2)ccc1O [HOMOERIODICTYOL] — the same, 0
- O=c1c(-c2ccc(O)cc2)coc2cc(O)ccc12 [DAIDZEIN] — the same, 0
- O=C1c2c(O)cc(O)cc2O[C@H](c2ccc(O)c(O)c2)[C@H]1O [(+)-TAXIFOLIN] — higher, 41
- COc1ccc(-c2cc(=O)c3ccccc3o2)cc1 [4'-METHOXYFLAVONE] — the same, 0
- C[C@@H]1O[C@@H](OC[C@H]2O[C@@H](Oc3c(-c4ccccc4O)oc4cc(O)cc(O)c4c3=O)[C@H](O)[C@@H](O)[C@@H]2O)[C@H](O)[C@H](O)[C@H]1O — higher, 28.4
- O=c1cc(-c2ccc(Oc3c(O)cc4oc(-c5ccc(O)cc5)cc(=O)c4c3O)cc2)oc2cc(O)cc(O)c12 [HINOKIFLAVONE] — the same, 0

Tested on: Monocyte
Assay: Inhibition of procoagulant activity in monocyte from human blood assessed as counteraction of IL1-induced tissue factor expression after 18 hrs
Type: functional, cell-based

Point of comparison: `COc1cc(-c2oc3cc(O)cc(O)c3c(=O)c2O[C@@H]2O[C@H](CO)[C@@H](O)[C@H](O)[C@H]2O)ccc1O`, IC50 3.8 µM. Against it:
- O=c1cc(-c2ccc(O)c(-c3c(O)cc(O)c4c(=O)cc(-c5ccc(O)cc5)oc34)c2)oc2cc(O)cc(O)c12 [AMENTOFLAVONE] — within 1.5-fold, 3 µM
- O=c1cc(-c2ccc(O)cc2)oc2cc(O)cc(O)c12 [APIGENIN] — 3.2-fold lower, 1.2 µM
- O=c1c(O)c(-c2ccc(O)cc2)oc2cc(O)cc(O)c12 [KAEMPFEROL] — within 1.5-fold, 2.7 µM
- COc1cc(-c2oc3cc(O)ccc3c(=O)c2O)ccc1O [GERALDOL] — 1.7-fold lower, 2.3 µM
- COc1ccc(-c2oc3cc(O)cc(O)c3c(=O)c2O)cc1O [TAMARIXETIN] — within 1.5-fold, 4.6 µM
- O=c1cc(-c2ccccc2)oc2cc(O)cc(O)c12 [CHRYSIN] — 1.6-fold lower, 2.4 µM
- COc1cc(-c2oc3cc(O)cc(O)c3c(=O)c2O)ccc1O [ISORHAMNETIN] — the same, 3.8 µM
- COc1cc(-c2cc(=O)c3c(O)cc(O)cc3o2)ccc1O [CHRYSOERIOL] — within 1.5-fold, 2.6 µM
- COc1ccc(-c2cc(=O)c3c(O)cc(O)cc3o2)cc1O [DIOSMETIN] — within 1.5-fold, 3 µM
- COc1cc2oc(-c3ccc(O)cc3)cc(=O)c2cc1CC=C(C)C [BAVACHININ] — within 1.5-fold, 3.2 µM
- COc1cc(-c2oc3cc(O)cc(O)c3c(=O)c2O)cc(OC)c1O [SYRINGETIN] — 1.8-fold lower, 2.1 µM
- O=C(/C=C/c1ccc(O)cc1)OC[C@H]1O[C@@H](Oc2c(-c3ccc(O)cc3)oc3cc(O)cc(O)c3c2=O)[C@H](O)[C@@H](O)[C@@H]1O [TILIROSIDE] — within 1.5-fold, 5.2 µM
- COc1ccc(-c2oc3cc(O)cc(O)c3c(=O)c2O)cc1 [KAEMPFERIDE] — 1.5-fold higher, 5.7 µM
- O=c1cc(-c2ccc(O)c(O)c2)oc2cc(O)cc(O)c12 [LUTEOLIN] — 2.5-fold lower, 1.5 µM
- COc1ccc(-c2cc(=O)c3c(OC)c(OC)c(OC)cc3o2)cc1OC [SINENSETIN] — 2.6-fold higher, 10 µM
- O=c1c(O)c(-c2ccc(O)c(O)c2)oc2cc(O)ccc12 [FISETIN] — within 1.5-fold, 3.7 µM
- COc1ccc([C@@H]2CC(=O)c3c(O)cc(O)cc3O2)cc1O [HESPERETIN] — 1.8-fold lower, 2.1 µM
- O=c1cc(-c2ccc(O)c(O[C@@H]3O[C@H](CO)[C@@H](O)[C@H](O)[C@H]3O)c2)oc2cc(O[C@@H]3O[C@H](CO)[C@@H](O)[C@H](O)[C@H]3O)cc(O)c12 [LUTEOLIN-3',7-DIGLUCOSIDE] — 2.5-fold lower, 1.55 µM
- O=c1cc(-c2ccc(Oc3c(O)cc4oc(-c5ccc(O)cc5)cc(=O)c4c3O)cc2)oc2cc(O)cc(O)c12 [HINOKIFLAVONE] — 79-fold lower, 0.048 µM

Tested on: Monocyte
Assay: Inhibition of procoagulant activity in monocyte from human blood assessed as counteraction of endotoxin-induced tissue factor expression after 18 hrs
Type: functional, cell-based

Compound `O=c1cc(-c2ccc(Oc3c(O)cc4oc(-c5ccc(O)cc5)cc(=O)c4c3O)cc2)oc2cc(O)cc(O)c12` [HINOKIFLAVONE] has an IC50 of 0.018 µM.
